Assay results reported in US8889840B2, “Vascular leakage inhibitor” (Industry-Academic Cooperation Foundation, Yonsei University, priority 2009, dated 2014).

Assays:
[1] = test system: diabetic mouse (DM) model; experiment: Retinal vascular permeability in diabetic mouse (DM) model, FITC-dextran; assay type: in vivo, C57/BL6 mouse; conditions: streptozotocin diabetic mouse, 10 μg into the vitreous body, 24 hours
Experimental: 10 μg of Sac0601 or 10 μg of Sac0504 was injected into the vitreous body of one eye of a diabetic mouse. 24 hours after the injection, 100 μL of FITC-dextran (30 mg/mL in filtered […]) was injected into the left ventricle. Then, the retina was observed under an optical microscope (FIG. 11a) and the fluorescence intensity was quantified (FIG. 11b).
For in vivo analysis of the effect of the synthesized Rk1 derivatives on increased vascular permeability in diabetic retinopathy, a diabetic mouse (DM) model was made by injecting streptozotocin to C57/BL6 mouse. Sac 0601 or Sac 0504 (10 μg) was injected into the vitreous body of the mouse. 24 hours later, 40-kDa FITC-dextran (30 mg/mL in PBS, Sigma) was injected into the left ventricle. After waiting for about 2 minutes for circulation of the tracer, the eyes were taken out and fixed immediately in 4% PFA. Then, the retina was taken out and observed under an optical microscope.

[2] = test system: human retinal endothelial cells (HRECs); experiment: Serum depletion-induced apoptosis of HRECs, MTT assay and cell morphology; assay type: cell-based; conditions: for ability of inhibiting apoptosis (MTT assay): 48 hours after treatment; for ability of protecting retinal vascular endothelial cells from apoptosis induced by the removal of serum (MTT): serum-free medium, 0.1-10 μg/mL
Experimental: HRECs (3×10^4 cells/well) were seeded on a 24-well plate in M199 medium containing 20% fetal bovine serum. The next day, the cells were transferred to a medium containing […] Sac0601 (FIG. 4a) or 0.1-10 μg/mL Sac0504 (FIG. 4b). Cell viability was determined by MTT assay 48 hours later. FIGS. 5a-5c show the result of observing cell morphologies.
Human umbilical vein endothelial cells (HUVECs) and human retinal endothelial cells (HRECs) purchased from Cell Systems (USA) were seeded on a 100-mm culture dish in M199 medium (Life Technologies, USA) containing 20% (w/v) fetal bovine serum (FBS, HyClone, Canada), 100 units/mL penicillin (Invitrogen, USA), 100 μg/mL streptomycin (invitrogen, USA), 3 ng/mL basic fibroblast growth factor (bFGF, Upstate Biotechnology, USA) and 5 units/mL heparin and cultured in a 5% CO2 incubator at 37° C.
Also, HRECs were treated with the compounds synthesized in Synthesis Example 5 and MIT assay was performed 48 hours later in the same manner as described above.
Also, the acid compound wherein the methyl ester formed by the introduction of the ester group was hydrolyzed was synthesized to provide improved water solubility and activity. MYT assay was performed for the compounds synthesized in Synthesis Example 6 in the same manner as described above 48 hours after treatment.
Their ability of inhibiting apoptosis was confirmed again for HRECs. HRECs (3×10^4 cells/well) were seeded on a 24-well plate in M199 medium (1 mL) containing 20% fetal bovine serum, Next day, the cells were transferred to serum-free M199 medium containing 0.1-10 μg/ml. Sac060.1 (FIG. 4a) or 0.1-10 μg; mL Sac0504 (FIG. 4b). Cell viability was determined by MTF assay in the same manner as in Test Example 1.
Their ability of inhibiting apoptosis was confirmed again for HRECs.

[3] = test system: HUVECs; experiment: VEGF-induced actin stress fibers in HUVECs, rhodamine phalloidin staining; assay type: cell-based, human; conditions: 10 μg/mL pretreatment 1 hour, 20 ng/mL VEGF
Experimental: Confluent HUVECs were pretreated with the compounds (10 μg/mL) for 60 minutes before treating with 20 ng/mL VEGF (1 hr). The cells were then stained with rhodamine phalloidin.
It is known that the change in the actin structure of the cytoskeleton is closely related with the permeability of vascular endothelial cells. Increased permeability of vascular endothelial cells leads to increased formation of actin stress fibers and decrease of cortical actin ring structures. Based on this, the ability of inhibiting vascular endothelial permeability of the synthesized Rk1 derivatives was screened. Confluent HUVECs were pretreated with the synthesized compounds (10 μg/mL) for 1 hour before treating with 20 ng/mL VEGF (Upstate Biotechnology). Subsequently, the cells were fixed with 4% paraformaldehyde for 20 minutes at room temperature and washed 3 times with PBS (pH 7.4). Then, the cells were permeabilized with 0.1% Triton X-100/PBS and reacted with 0.1 mg/mL rhodamine phalloidin (Molecular Probes) for 1 hour. Then, the cells were observed under a fluorescence microscope (Olympus).

[4] = test system: HRECs; experiment: VEGF-induced actin stress fibers in HRECs, rhodamine phalloidin staining; assay type: cell-based, human; conditions: 10 μg/mL 1 hour, then 20 ng/mL VEGF 1 hour
Experimental: Confluent HRECs were treated with 10 μg/mL Sac0601 or Sac0504 for 1 hour and then with 20 ng/mL VEGF for 1 hour. Subsequently, the cells were fixed at room temperature for 20 minutes with 4% paraformaldehyde and washed 3 times with PBS (pH 7.4). Then, the cells were permeabilized with 0.1% Triton X-100/PBS and reacted with 0.1 mg/mL rhodamine phalloidin (Molecular Probes) for 1 hour. Then, the cells were observed under a fluorescence microscope (Olympus). […] The analysis of actin cytoskeleton was conducted also for the compounds synthesized in Synthesis Example 5. Both Sac0904 and Sac0902 exerted effects in a concentration-dependent manner on the actin cytoskeleton which is closely related with vascular permeability (FIG. 7c).

[5] = test system: occludin; experiment: Occludin western blotting of HREC lysate; assay type: cell-based, human; conditions: HRECs, pretreatment 60 minutes, then 20 ng/mL VEGF 1 hour
Experimental: In FIG. 8b, confluent HRECs were pretreated with Sac0601 (10 μg/mL) for 60 minutes before treating with 20 ng/mL VEGF (1 hr). Then, cell lysate was subjected to western blotting using anti-occludin antibody.
(§1) Confluent HRECs were treated with 10 μg/mL Sac0601 (FIG. 8a, panel A) or Sac0504 (FIG. 8a, panel B) for 1 hour and then with 20 ng/mL. VEGF for 1 hour. Subsequently, the cells were fixed at room temperature for 20 minutes with 4% paraformaldehyde and permeabilized with 0:1% Triton X-100/PBS. Then, the cells were incubated in PBS blocking solution containing 5% normal goat serum and 0.05% Tween-20. The cells were then reacted with anti-occludin antibody (Zymed Laboratories Inc.). The result was visualized with fluorescein-conjugated anti-mouse antibody (Vector Lab.). Also, western blotting was conducted for the cell lysate. The cell lysate was fractionated with SDS-PAGE and then transferred to polyvinyl difluoride membrane. The blocked membrane was reacted with anti-occludin antibody (Zymed Laboratories Inc.) and the immune response band was visualized with the chemiluminescence reagent obtained from Amersham Biosciences, Inc.

[6] = test system: HRECs; experiment: Stability of tight junctions (TJs) at cell-cell contacts in VEGF-treated HRECs, anti-occludin immunostaining; assay type: cell-based, human; conditions: 10 μg/mL 1 hour, then 20 ng/mL VEGF 1 hour
Experimental: In FIG. 8a, confluent HRECs were pretreated with Sac0601 (panel A in FIG. 8a) or Sac0504 (panel B in FIG. 8a) for 60 minutes before treating with 20 ng/ml. VEGF (1 hr). The cells were then stained with occludin antibody.
as §1

[7] = test system: HRECs; experiment: Permeability of HRECs on transwell filter, labelled sucrose; assay type: cell-based, human; conditions: 10 μg/mL 60 minutes, with or without 20 ng/mL VEGF
Experimental: HRECs were seeded on a transwell filter. After reaching confluency, the cells were pretreated with Sac0601 (FIG. 10a) and Sac0504 (FIG. 10b) for 60 minutes before treating with 20 ng/ml. VEGF (1 hr). The permeability of HRECs was determined by measuring radiation of […] (1 μCi/μL) diffused below the transwell using a liquid scintillation counter.
The effect of Sac0601 and Sac0504 on vascular permeability was analyzed. HRECs were seeded on a transwell filter (Corning Costar). After reaching confluency, the cells were cultured in M199 medium containing 1% FBS for 3 hours and treated with 10 μg/mL. Sac0601 (FIG. 10a) or Sac0504 (FIG. 10b) for 60 minutes, with or without pretreatment with 20 ng/mL VEGF for 60 minutes. Then, [^3H]sucrose (1 μCi [0.037 MBq.]/μL or 50 μL (0.8 μCi [0.0296 MBq])/mL, Amersham Pharmacia) were added. 30 minutes later, radiation diffused below the transwell was measured using a liquid scintillation counter (Wallac, PerkinElmer). Measurement was made at least four locations.

Row | SMILES | retinal vascular permeability induced in the DM [1] | ability of inhibiting apoptosis (MTT assay) [2] | ability of protecting retinal vascular endothelial cells from apoptosis induced by the removal of serum (MTT) [2] | cortical actin ring structure [3] | formation of actin stress fibers induced by VEGF [3] | formation of actin stress fibers induced by VEGF [4] | formation of cortical actin ring structures [4] | ability of protecting the vascular endothelial cells ([2]; incl. observation of cell morphologies) | occludin (western blotting) [5] | redistribution of TJs into the cytoplasm or destabilizing at the cell membrane induced by VEGF [6] | permeability of the vascular endothelial cells [7]
1 | CC(=O)OCC1OC(OC2CCC3(C)C(=CCC4C3CCC3(C)C4CCC3C(C)(O)CCCC(C)C)C2)C=CC1OC(C)=O (stereo not shown) [Sac0902] | only limitedly | better ability of inhibiting apoptosis than Sac0601 | showed the ability of protecting the vascular endothelial cells from apoptosis induced by the removal of serum in a concentration-dependent manner | increased the cortical actin ring structure | inhibited the formation of actin stress fibers induced by VEGF | inhibited the formation of actin stress fibers | increased the formation of cortical actin ring structures |  |  |  | 
2 | CC(=O)OCC1OC(OC2CCC3(C)C(=CCC4C3CCC3(C)C(C(C)=CCCC(C)C)CCC43)C2)C=CC1OC(C)=O (stereo not shown) [Sac0904] | very effectively | better ability of inhibiting apoptosis than Sac0601 | showed the ability of protecting the vascular endothelial cells from apoptosis induced by the removal of serum in a concentration-dependent manner | increased the cortical actin ring structure | inhibited the formation of actin stress fibers induced by VEGF | inhibited the formation of actin stress fibers | increased the formation of cortical actin ring structures |  |  |  | 
3 | COC(=O)CCC/C=C(\C)[C@H]1CCC2C3CC=C4C[C@@H](OC5C=C[C@H](OC(C)=O)[C@@H](COC(C)=O)O5)CC[C@]4(C)C3CC[C@@]21C (stereo partly shown) [Sac1004] | very effectively | improved ability of inhibiting apoptosis over SAC-0904 | showed the ability of protecting the vascular endothelial cells from apoptosis induced by the removal of serum in a concentration-dependent manner | increased the cortical actin ring structure | inhibited the formation of actin stress fibers induced by VEGF | inhibited the formation of actin stress fibers | increased the formation of cortical actin ring structures | improved ability of protecting the vascular endothelial cells over SAC-0904 | restores the activity of occludin decreased by VEGF | could be inhibited | inhibiting permeability of the vascular endothelial cells
